Assay results from US7601688B2, “Methods of reducing hypoglycemic episodes in the treatment of diabetes mellitus” (Biocon Limited, priority 2001, dated 2009).

What was measured:
[1] = in vivo
Description: Study Objectives: To evaluate whether HIM2 doses, when titrated, are able to maintain 2-hour post-prandial blood glucose levels consistent with the pre-study range between 80-250 mg/dL as compared to insulin lispro and to evaluate the safety profile for HIM2. Patient Population: Adult patients with type 1 diabetes participated in the study. […] Design and Methods: A multicenter, dose titration, randomized, insulin lispro controlled, parallel, open-label study was conducted. A 2-day inpatient period was provided to establish optimal basal rate. A 5-7 day run-in period (maintained optimized basal rate; insulin requirements, episodes of hypoglycemia or hyperglycemia, dietary intake and physical activity recorded) was provided. A 3-day inpatient dosing period was performed. Carbohydrate intake was individualized (40% of total calories, equally divided among 4 meals during each study day). Basal insulin (CSII) was unchanged throughout the 3-day dosing period. Initial Doses: HIM2 0.25 mg/kg (7.2 U/kg; 1 mg of insulin=28.7 units of insulin), p.o., in a formulation shown in Table 1, 10 minutes prior to meal, HIM2 0.125 mg/kg (3.6 U/kg; 1 mg of insulin=28.7 units of insulin), p.o., in a formulation shown in Table 1, 120 minutes post meal, and Insulin lispro (commercially available from Eli Lilly & Co., Indianapolis, Ind.) (hereinafter “Lispro”), 0.1 U/kg (0.003 mg/kg; 1 mg of insulin=28.7 units of insulin), s.c., 15 minutes prior to meal. Doses were adjusted as necessary with the next scheduled dose according to the dose titration rules described in Table 2; however, no dose titration was allowed during study day 3.
Assays: Plasma glucose: glucose oxidase-based enzymatic assay. Plasma insulin: RIA method (Linco Research, St. Charles, Mo.). Efficacy Variables: The following variables were evaluated to determine efficacy of HIM2 compared to Lispro. (1) Percentage of patients able to maintain 2-hour postprandial blood glucose levels consistent with pre-study values between 80-250 mg/dL on Day 3 (HIM2 compared to insulin lispro). (2) Daily mean plasma glucose on Day 3. (3) Postprandial glucose at 2 hours during Day 3. (4) Number of rescue interventions (hypoglycemia). Safety Variables: Adverse events, vital signs, clinical chemistry, hematology, urinalysis, and ECG monitoring. Data Analysis: A comparison of proportion of patients within target glucose range (80-250 mg/dL) was analyzed. The daily mean plasma glucose AUC was analyzed using a t-test. The Day 3-2 hour post-prandial glucose was analyzed using a t-test. Comparison of rates for hypoglycemic events was analyzed using glucose 50-60 mg/dL, glucose ≦50 mg/mL, and number of rescue interventions. Demographics: A total of 31 patients were enrolled and analyzed in this study (15 M/16 F).

[2] = Dose titration study of oral HIM2 vs. insulin lispro: glucodynamics; type: in vivo, human; settings: adult type 1 diabetes patients; for Day 3 - 2 Hour Post-prandial Glucose, Breakfast (Mean ± SEM) / Day 3 - 2 Hour Post-prandial Glucose, Dinner (Mean ± SEM) / Day 3 - 2 Hour Post-prandial Glucose, Evening Snack (Mean ± SEM) / Day 3 - 2 Hour Post-prandial Glucose, Lunch (Mean ± SEM): basal CSII, HIM2 p.o., Lispro s.c., titrated doses; for Day 3 - 2 Hour Post-prandial Glucose, Breakfast (Mean ± SEM): after breakfast, p = 0.28; for Day 3 - 2 Hour Post-prandial Glucose, Dinner (Mean ± SEM): after dinner, p = 0.07; for Day 3 - 2 Hour Post-prandial Glucose, Evening Snack (Mean ± SEM): after evening snack, p = 0.24; for Day 3 - 2 Hour Post-prandial Glucose, Lunch (Mean ± SEM): after lunch, p = 0.29; for Day 3 - Daily Mean (±SEM) Plasma Glucose AUC: total 24-hour AUC divided by 1440 (time-adjusted), p = 0.46; for Patients with average 2-hour post-prandial glucose levels consistent with pre-study values (range 80-250 mg/dL): Fisher's exact test p=0.42
Description: A 3-day inpatient dosing period was performed.
Assays: Plasma glucose: glucose oxidase-based enzymatic assay. Plasma insulin: RIA method (Linco Research, St. Charles, Mo.). […] (2) Daily mean plasma glucose on Day 3. (3) Postprandial glucose at 2 hours during Day 3. (4) Number of rescue interventions (hypoglycemia).

| Substance | Documented serious adverse event for hypoglycemia [1] | Hypoglycemic events that required rescue intervention [1] | Number and frequency of gastrointestinal side effects (primarily unpleasant taste and diarrhea) [1] | Number of hypoglycemic events (overall assessment) [1] | Day 3 - 2 Hour Post-prandial Glucose, Breakfast (Mean ± SEM) [2] | Day 3 - 2 Hour Post-prandial Glucose, Dinner (Mean ± SEM) [2] | Day 3 - 2 Hour Post-prandial Glucose, Evening Snack (Mean ± SEM) [2] | Day 3 - 2 Hour Post-prandial Glucose, Lunch (Mean ± SEM) [2] | Day 3 - Daily Mean (±SEM) Plasma Glucose AUC [2] | Patients with average 2-hour post-prandial glucose levels consistent with pre-study values (range 80-250 mg/dL) [2] |
| --- | --- | --- | --- | --- | --- | --- | --- | --- | --- | --- |
| Lys^B29-Hexyl-PEG7-Oligomer-Conjugated Insulin [HIM2] | One | significantly lower | occurred more frequently | trend toward fewer events | 192.3 ± 19.4 | 249.0 ± 19.3 | 231.4 ± 18.4 | 232.9 ± 21.0 | 182.0 ± 10.0 mg/dL | 63% |
| Insulin lispro [reference compound] |  |  |  |  | 158.2 ± 24.3 | 195.3 ± 20.6 | 197.9 ± 20.4 | 202.6 ± 16.1 | 170.6 ± 11.8 mg/dL | 83% |
